Reference: patent US12458581B2, “Carboxylic acid loaded salt carrier and the method for producing thereof” (priority 2021, dated 2025)
Read-outs that look alike come from different tables or passages of the source.

Experiments:
[1] = pH measurement of 0.1 M aqueous solutions; assay type: physicochemical; details: 0.1 M in millipore water, r.t., average of at least three measurements
Text: For the pH measurements, a Seven2Go portable pH meter S2 (pH measuring-range: −2 to 20; resolution: 0.01) with an InLab Ultra Micro-ISM electrode (measuring range: pH −1 to pH 11; low temperature membrane glass type; ceramic diaphragm; reference system with Ag^+ ion trap by argenthal) as well as with an in-lab routine pH electrode (measuring range: pH 0 to pH 14; ceramic diaphragm; reference system with Ag^+ ion trap by argenthal) from Mettler-Toledo AG (Analytical, Switzerland) was used.
For sake of comparability, compounds of the same loading ratio n=2, which is 2:1 of the loaded carboxylic acid with respect to the carrier carboxylic acid, were selected for this analysis. […] The analytes were dissolved in millipore water, stirred for 5 minutes in an airtight vial to perform the pH measurements thereafter at r.t. All measurements were performed at 0.1 molar (M) concentration of the samples, which is 0.1 mol per liter (mol/L).
For sake of reliability, every result stated is the average of at least three single measurements. […] The numbers 1-73 (nr., first row) are used as an assignment for the 73 pairs, comprising the compound of invention (third row), the corresponding carrier carboxylic acid (fourth row) and the loaded carboxylic acid (fifth row), as used in the FIG. 6.

[2] = mean particle diameter
[3] = Thermal analysis (TGA/DTA); assay type: physicochemical
Protocol: Thermal analysis was carried out with a Linseis STA 1600 simultaneous thermal analyzer to determine simultaneous changes of weight (TGA signal) and caloric measurable transformations (DTA signal) in a temperature range between r.t. and 300° C.

[4] = tested on: total bacteria count (TBC); details: forage, 0.5 wt % topical, r.t., 31 days
Protocol: (§1) All tests were conducted under equal conditions. […] The additives were dosed at 0.5 wt % and were applied topically to the samples. […] The preservation effectiveness was established by testing for total bacteria count (TBC), yeast/fungi count and Enterobacteria/β-Glucoronidase-positive-Enterobacteria (E/β).

[5] = tested on: Enterobacteria/β-Glucoronidase-positive-Enterobacteria (E/β); test: Silage preservation: E/β count; details: forage, 0.5 wt % topical, r.t., 31 days
Protocol: as §1

yeast/fungi = test: Silage preservation: yeast/fungi count; details: forage, 0.5 wt % topical, r.t., 31 days
Protocol: as §1

[6] = Application as additive in liquid shaving soap
Text: The mix was stirred with hard soap pieces remaining undissolved and placed for 50 seconds at 600 W in a microwave oven. […] The mixture was placed for 80 seconds in a microwave at 600 W. Thereafter the resulting mixture was hand-blended and filled into a jar for testing and storage.

CC(=O)O.CC(=O)O.CC(=O)[O-].CC(=O)[O-].[Ca+2] [CaAc-HAc [2], calcium acetate with loaded acetic acid]
pH values compound [1]: 5.05 | dav [2]: 221 μm | dav ([2]; listed as CaAc—HAc [2]): approximately 220 μm | thermal stability of the carrier carboxylic acid salt ([3]; TGA/DTA between r.t. and 300° C.): ≤ 300 °C | first loss of weight (TGA) ([3]; partially hydrated sample prior drying, 25-135° C.): −7.0 wt % of total weight | second stage of weight-loss (TGA) ([3]; partially hydrated sample prior drying, 135-300° C.): 11.7 wt % of the total weight | overall loss of weight (TGA) ([3]; partially hydrated sample, between r.t. and 300° C.): 18.74%

O=CO.O=CO.O=C[O-].O=C[O-].[Ca+2] [CaFo-HFo [2], calcium formate with loaded formic acid]
pH values compound [1]: 5.19 | TBC [4]: dramatically reduce | E/β count [5]: dramatically reduce | yeast count (yeast/fungi): dramatically reduce

CCC(=O)O.CCC(=O)O.O=C[O-].O=C[O-].[Ca+2] [CaFo-HProp [2], calcium formate with loaded propionic acid]
pH values compound [1]: 5.79 | TBC [4]: dramatically reduce | E/β count [5]: dramatically reduce | growth of β-Glucoronidase-positive-Enterobacteria (especially E. coli) [5]: completely inhibit | growth of yeasts (yeast/fungi): completely inhibit | yeast count (yeast/fungi): dramatically reduce

CC(O)C(=O)O.CC(O)C(=O)O.O=C([O-])c1ccccc1O.O=C([O-])c1ccccc1O.[Ca+2] [CaSal-HLac [2], calcium salicylate with loaded lactic acid]
pH values compound [1]: 3.43 | stability (>24 h) [6]: yes

O=C([O-])CC(O)(CC(=O)[O-])C(=O)[O-].O=C([O-])CC(O)(CC(=O)[O-])C(=O)[O-].[Ca+2].[Ca+2].[Ca+2] [calcium citrate]
stability (>24 h) ([6]; liquid shaving soap, additive 1 or 2 % wt): yes

O=C(O)CC(O)C(=O)O (stereo not drawn) [malic acid]
stability (>24 h) [6]: no
